{"source": "patent US9868736B2", "about": "“Deubiquitinase inhibitors and methods for use of the same” (THE REGENTS OF THE UNIVERSITY OF MICHIGAN, priority 2013, dated 2018)", "key": {"[1]": {"molecular_target": "T1, catalytic domain of Usp9x (Usp9xCD) (Homo sapiens, UniProt Q93008)", "T1 construct": "DNA corresponding to amino acids 1553-1960 of human Usp9x; His6-Smt3 (SUMO) fusion tag, ULP1-cleavable (N, cleaved yes); made in house; host or cells: E. coli", "T1 sequence (Q93008 1553-1960)": "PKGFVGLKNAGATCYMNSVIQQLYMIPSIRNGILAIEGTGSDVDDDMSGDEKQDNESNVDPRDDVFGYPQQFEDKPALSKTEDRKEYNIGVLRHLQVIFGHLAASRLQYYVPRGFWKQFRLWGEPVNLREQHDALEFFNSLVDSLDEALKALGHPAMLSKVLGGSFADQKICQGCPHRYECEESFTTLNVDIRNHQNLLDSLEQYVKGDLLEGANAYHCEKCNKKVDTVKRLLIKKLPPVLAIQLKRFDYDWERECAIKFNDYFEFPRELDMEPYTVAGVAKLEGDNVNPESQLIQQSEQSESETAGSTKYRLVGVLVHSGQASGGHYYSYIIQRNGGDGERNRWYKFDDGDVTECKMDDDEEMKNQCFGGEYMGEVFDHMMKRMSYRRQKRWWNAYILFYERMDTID", "assay": "Usp9xCD Ub-AMC enzyme assay", "type": "biochemical", "details": "screen of 210 structures", "experimental": "A series of chemical modifications were initiated to increase our structure activity relationship (SAR) analysis of inhibitors. […] The DNA was cloned into a ULP1-protease cleavable N-terminal His6-Smt3-fusion tag expression vector, derived from pET-28. Protein expression was induced at OD600 2.0, in TB media with Kanamycin overnight at 16° C. Cells were harvested and flash frozen before use. […] Protein was concentrated to roughly 20-40 mg/ml before aliquots were flash-frozen. All steps were performed in the presence of reducing agents, either BME, DTT, or TCEP.\nPurified recombinant enzyme in buffer containing 2 mM DTT was buffer exchanged into 25 mM Tris-HCl, 50 mM NaCl and 1 mg/ml BSA using a spin column. […] IC50 values were estimated by integrating the slope of each reaction using GraphPad 6.\nTwo hundred and ten (210) novel chemical structures were screened for Usp9xCD inhibitory activity using this assay. […] Fluorescent scans were used to assess Usp9xCD inhibitory activity in this enzyme assay for all compounds of interest. Each assay was performed in duplicate and the linear region of each reaction curve was used to calculate IC50 values for Usp9xCD inhibition which are tabulated in Table 1."}, "[2]": {"tested_on": "vemurafenib sensitive and resistant A375 melanoma cells", "assay": "in vitro anti-tumor efficacy in A375 melanoma cells", "type": "cell-based", "details": "Homo sapiens, A-375", "source_text": "(§1) Similar results were obtained in A375R Usp5 KD cells treated with a MEK inhibitor."}, "murine norovirus": {"tested_on": "murine norovirus", "assay": "antiviral screen against murine norovirus in macrophages", "type": "cell-based", "details": "RAW cells, Swiss Webster and Balb/c bone marrow derived macrophages, FIG. 8", "source_text": "G9 was screened in RAW cells, Swiss Webster bone marrow derived macrophages and Balb/c bone marrow derived macrophages, compared to vehicle (DMSO), prior compound WP1130 and compound VM030. […] VM030 has a structure of […]"}, "[3]": {"tested_on": "CD34+ cells from normal donors and myeloma cell lines (MM1.S, H929)", "assay": "apoptosis by annexin V staining (flow cytometry)", "type": "cell-based", "details": "24 hours", "experimental": "Cellular apoptosis was measured by detection of annexin V on the surface of cells using flow cytometry. Cells were treated with the indicated concentration of G9 for 24 hours before assessing annexin positivity as an indication of […] using duplicate assays derived from duplicate samples. CD34+ cells from two normal donors (left) or two myeloma cell lines (right) were treated with the indicated concentration of G9 for 24 hours before measuring cell survival by annexin V staining (assessed by flow cytometry). Each data point represents the average of 2 samples assayed in duplicate and presented as the average+/−S.D. for each G9 concentration."}, "Usp24": {"molecular_target": "Usp24 (Homo sapiens, UniProt Q9UPU5)", "sequence (Q9UPU5 whole entry)": "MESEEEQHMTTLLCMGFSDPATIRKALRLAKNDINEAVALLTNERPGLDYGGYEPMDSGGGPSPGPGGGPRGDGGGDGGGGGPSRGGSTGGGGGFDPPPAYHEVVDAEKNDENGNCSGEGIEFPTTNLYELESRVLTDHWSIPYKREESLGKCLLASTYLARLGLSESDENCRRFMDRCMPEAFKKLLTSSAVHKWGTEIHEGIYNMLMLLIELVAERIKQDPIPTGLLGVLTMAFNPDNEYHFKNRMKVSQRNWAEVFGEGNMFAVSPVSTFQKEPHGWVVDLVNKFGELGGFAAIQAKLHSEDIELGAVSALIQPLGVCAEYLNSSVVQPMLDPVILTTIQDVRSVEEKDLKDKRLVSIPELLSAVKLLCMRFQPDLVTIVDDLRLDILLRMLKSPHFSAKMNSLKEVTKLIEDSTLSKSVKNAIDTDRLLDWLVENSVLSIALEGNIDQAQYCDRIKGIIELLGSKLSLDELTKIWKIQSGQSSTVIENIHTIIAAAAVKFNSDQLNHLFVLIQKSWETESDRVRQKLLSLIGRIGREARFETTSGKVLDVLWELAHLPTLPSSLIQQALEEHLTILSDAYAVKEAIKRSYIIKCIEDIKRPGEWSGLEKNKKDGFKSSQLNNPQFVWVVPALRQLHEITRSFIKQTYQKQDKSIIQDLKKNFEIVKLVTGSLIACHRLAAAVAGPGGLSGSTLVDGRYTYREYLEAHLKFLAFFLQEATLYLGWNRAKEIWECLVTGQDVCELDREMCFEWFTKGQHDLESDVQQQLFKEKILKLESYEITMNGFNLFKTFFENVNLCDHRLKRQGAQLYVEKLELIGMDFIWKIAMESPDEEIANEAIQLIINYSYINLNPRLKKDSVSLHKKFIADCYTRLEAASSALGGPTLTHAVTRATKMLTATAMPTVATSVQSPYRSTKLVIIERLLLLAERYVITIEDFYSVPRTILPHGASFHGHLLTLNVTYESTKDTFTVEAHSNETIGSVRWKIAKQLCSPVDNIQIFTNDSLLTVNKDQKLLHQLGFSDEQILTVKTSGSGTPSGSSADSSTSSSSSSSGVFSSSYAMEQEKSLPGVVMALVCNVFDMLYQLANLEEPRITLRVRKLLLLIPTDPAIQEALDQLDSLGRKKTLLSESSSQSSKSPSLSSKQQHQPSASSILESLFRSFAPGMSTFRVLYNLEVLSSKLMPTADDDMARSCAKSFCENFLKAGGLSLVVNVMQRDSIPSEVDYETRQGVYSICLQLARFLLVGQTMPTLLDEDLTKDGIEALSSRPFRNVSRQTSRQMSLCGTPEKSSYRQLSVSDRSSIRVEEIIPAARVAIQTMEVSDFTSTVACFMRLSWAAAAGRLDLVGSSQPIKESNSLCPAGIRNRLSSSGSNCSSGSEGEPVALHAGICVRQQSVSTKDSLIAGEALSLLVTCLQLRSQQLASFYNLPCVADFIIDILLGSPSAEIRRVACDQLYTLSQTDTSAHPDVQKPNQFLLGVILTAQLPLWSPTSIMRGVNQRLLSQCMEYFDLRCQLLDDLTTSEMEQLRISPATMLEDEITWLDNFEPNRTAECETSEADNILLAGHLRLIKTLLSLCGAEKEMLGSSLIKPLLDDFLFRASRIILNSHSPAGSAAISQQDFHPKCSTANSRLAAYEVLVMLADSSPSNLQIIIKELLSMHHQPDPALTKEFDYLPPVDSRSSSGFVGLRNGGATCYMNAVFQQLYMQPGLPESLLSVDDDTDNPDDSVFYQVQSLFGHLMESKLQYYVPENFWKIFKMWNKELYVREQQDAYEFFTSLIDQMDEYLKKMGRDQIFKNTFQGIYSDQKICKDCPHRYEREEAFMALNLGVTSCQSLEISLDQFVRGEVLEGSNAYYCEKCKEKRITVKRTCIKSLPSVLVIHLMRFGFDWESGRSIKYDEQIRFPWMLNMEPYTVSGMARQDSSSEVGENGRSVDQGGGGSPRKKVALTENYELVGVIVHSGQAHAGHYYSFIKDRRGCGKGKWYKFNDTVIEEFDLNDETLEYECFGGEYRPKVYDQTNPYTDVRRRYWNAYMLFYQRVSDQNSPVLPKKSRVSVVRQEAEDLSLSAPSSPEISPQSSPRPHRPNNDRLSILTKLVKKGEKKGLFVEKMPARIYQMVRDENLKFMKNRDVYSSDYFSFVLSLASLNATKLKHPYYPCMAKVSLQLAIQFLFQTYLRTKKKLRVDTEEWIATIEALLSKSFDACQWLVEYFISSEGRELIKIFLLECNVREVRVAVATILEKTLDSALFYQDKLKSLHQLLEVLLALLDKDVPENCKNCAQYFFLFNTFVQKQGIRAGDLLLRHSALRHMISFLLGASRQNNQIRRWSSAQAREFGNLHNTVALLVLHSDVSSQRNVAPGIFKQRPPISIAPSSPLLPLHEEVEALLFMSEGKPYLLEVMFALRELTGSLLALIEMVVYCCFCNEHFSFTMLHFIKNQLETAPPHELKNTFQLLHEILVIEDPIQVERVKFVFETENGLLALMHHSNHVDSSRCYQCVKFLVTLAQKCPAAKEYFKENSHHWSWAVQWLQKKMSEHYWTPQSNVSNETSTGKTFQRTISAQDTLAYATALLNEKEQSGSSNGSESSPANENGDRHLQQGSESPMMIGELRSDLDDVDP", "assay": "Usp24 inhibition"}, "Usp9x [4]": {"molecular_target": "T2, Usp9x (Homo sapiens, UniProt Q93008)", "T2 sequence (Q93008 whole entry)": "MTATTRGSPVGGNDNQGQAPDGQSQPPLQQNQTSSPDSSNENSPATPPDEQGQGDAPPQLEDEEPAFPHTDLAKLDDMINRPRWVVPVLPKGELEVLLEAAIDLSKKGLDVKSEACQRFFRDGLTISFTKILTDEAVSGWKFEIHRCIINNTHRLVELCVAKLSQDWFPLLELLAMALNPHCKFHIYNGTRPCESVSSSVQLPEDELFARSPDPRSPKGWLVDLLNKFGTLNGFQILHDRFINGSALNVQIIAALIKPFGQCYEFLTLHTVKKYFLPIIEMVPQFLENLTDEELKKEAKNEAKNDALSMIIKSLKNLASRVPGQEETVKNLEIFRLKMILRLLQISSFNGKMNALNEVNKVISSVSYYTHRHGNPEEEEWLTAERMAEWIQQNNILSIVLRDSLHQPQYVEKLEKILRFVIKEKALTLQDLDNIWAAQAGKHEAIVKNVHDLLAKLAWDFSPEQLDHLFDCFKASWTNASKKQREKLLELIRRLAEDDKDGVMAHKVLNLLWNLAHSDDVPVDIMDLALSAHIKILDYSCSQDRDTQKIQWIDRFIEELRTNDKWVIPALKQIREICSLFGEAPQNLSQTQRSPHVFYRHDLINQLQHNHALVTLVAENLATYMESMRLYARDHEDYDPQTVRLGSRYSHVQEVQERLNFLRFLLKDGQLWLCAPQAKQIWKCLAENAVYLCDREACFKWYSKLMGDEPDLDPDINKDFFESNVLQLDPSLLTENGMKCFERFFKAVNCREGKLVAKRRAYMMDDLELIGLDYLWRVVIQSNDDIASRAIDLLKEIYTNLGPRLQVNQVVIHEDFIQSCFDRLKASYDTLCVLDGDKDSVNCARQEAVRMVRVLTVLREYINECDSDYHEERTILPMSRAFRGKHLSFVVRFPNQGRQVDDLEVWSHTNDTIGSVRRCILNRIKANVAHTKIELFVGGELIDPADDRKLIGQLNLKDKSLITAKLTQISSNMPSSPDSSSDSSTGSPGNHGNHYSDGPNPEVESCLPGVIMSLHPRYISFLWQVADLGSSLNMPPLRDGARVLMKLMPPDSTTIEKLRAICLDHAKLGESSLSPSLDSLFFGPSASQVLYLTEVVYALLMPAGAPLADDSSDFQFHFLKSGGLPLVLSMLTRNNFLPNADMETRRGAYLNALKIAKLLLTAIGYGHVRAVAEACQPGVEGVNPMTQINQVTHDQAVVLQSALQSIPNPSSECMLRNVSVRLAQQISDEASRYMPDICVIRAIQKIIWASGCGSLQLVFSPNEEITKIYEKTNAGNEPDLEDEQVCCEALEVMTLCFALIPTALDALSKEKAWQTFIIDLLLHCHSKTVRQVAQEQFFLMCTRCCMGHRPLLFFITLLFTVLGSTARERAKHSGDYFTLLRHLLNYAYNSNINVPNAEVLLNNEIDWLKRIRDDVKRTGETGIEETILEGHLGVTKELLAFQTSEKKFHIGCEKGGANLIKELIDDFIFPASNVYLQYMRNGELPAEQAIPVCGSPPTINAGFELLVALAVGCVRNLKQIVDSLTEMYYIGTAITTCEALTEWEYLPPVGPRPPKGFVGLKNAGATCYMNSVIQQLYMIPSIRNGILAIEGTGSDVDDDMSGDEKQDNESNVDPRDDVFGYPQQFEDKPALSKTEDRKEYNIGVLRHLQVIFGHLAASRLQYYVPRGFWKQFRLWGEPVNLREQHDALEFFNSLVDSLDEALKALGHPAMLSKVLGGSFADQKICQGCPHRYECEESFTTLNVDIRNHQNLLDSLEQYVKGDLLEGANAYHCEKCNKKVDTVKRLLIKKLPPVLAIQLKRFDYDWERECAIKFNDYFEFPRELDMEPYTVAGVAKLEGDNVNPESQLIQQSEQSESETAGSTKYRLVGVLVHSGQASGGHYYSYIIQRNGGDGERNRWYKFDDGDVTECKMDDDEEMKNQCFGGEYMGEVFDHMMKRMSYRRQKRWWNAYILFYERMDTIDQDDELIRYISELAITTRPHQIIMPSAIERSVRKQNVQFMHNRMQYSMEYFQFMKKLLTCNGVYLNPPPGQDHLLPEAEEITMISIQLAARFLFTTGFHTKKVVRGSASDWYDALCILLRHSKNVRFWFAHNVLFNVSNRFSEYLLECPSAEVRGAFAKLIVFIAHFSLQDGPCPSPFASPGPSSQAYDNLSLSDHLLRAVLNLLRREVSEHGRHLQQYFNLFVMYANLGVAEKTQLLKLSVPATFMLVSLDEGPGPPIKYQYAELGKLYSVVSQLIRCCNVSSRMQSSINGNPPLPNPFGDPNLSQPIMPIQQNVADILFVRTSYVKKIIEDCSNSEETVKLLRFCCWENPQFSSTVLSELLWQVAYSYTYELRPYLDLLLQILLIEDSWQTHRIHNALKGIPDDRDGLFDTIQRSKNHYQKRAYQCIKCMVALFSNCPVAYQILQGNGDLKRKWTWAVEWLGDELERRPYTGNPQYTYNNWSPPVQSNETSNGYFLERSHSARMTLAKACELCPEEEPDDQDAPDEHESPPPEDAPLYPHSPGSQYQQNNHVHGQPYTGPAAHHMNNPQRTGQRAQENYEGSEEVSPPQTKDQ", "assay": "Usp9x activity, Mcl-1 and PARP in tumors extracted from treated mice", "type": "in vivo, NSG mice", "design": "from tissue; host or cells: MM1.S xenograft tumour extracted from NSG mice", "details": "15 mg/kg, tumors extracted one hour after last injection", "experimental": "To analyze that potential, mice were euthanized one hour after their last injection and tumors were extracted, photographed and flash-frozen on dry ice. Tumor tissue was sheared in liquid nitrogen, ground to a powder with a mortar and pestle and proteins extracted to assess Usp9x activity in 20 μg of protein from each tumor specimen. Tumors extracted from control and 15 mg/kg G9 treated mice were assessed for Usp9x activity as described above. […] Also shown are the effects of treatment on Usp9x and Usp24 protein, the latter a DUB closely related to Usp9x. The effect of G9 on the Usp9x substrate Mcl-1, and on cleavage of caspase substrate PARP, are also shown."}, "[5]": {"tested_on": "murine norovirus, Tulane virus, Listeria monocytogenes, Toxoplasma gondii, Norwalk virus", "assay": "inhibition of category A and B pathogens"}, "Usp9x [6]": {"molecular_target": "T2, Usp9x", "assay": "DUB activity (HA-Ub vinyl-sulfone labelling) in lysates of treated intact cells", "type": "cell-based", "design": "endogenous in cells; host or cells: Z138 lymphoma, MM1.S/MM1.ST myeloma, primary PCL cells, A375 and vemurafenib-resistant A375 melanoma", "details": "for inhibition at 5 µM: MM1.ST or PCL cells", "experimental": "In brief, control and treated cells were lysed by sonication in DUB assay buffer [50 mM Tris-HCl (pH 7.5), 5 mM MgCl2, 250 mM sucrose, 1 mM PMSF, 1× Roche proteinase inhibitory cocktail] and 20 μg of protein from the supernatant fraction (after a 14,000×g spin) were incubated with 200 nM HA-Ub vinyl-sulfone (Boston Biochem) in a final volume of 20 μl. After 90 min at 37° C., reactions were stopped with the addition of 5×-sample buffer. DUB activity was detected by SDS-PAGE resolution of the protein followed by nitrocellulose membrane transfer and immunoblotting with anti-HA.\nThe time required for G9-mediated Usp9x inhibition in intact multiple myeloma (MM1.S) cells and primary tumor cells from a patient with plasma cell leukemia (PCL) was investigated. MM1.ST (FIG. 1, left) or PCL (FIG. 1, right) cells were treated with 5 μM of compound for the time indicated before Usp9x activity was assessed as described above."}, "Mcl-1, PARP": {"tested_on": "Mcl-1, PARP", "assay": "Mcl-1 level and PARP cleavage in treated tumor cells", "type": "cell-based"}, "[7]": {"tested_on": "p53, pStat3, pERK, NOXA, PARP, Bid", "assay": "signalling and apoptosis markers in A375 cells", "type": "cell-based", "source_text": "as §1"}, "[8]": {"details": "Z138 lymphoma cells, 1.25, 2.5 and 5 μM, 4 hours"}, "[9]": {"details": "vemurafenib sensitive and resistant A375 cells"}}, "note": "“Also recorded” adds a separate entry of the source. Read-outs that look alike come from different tables or passages of the source."}
{"smiles": "CCCC(NC(=O)/C(C#N)=C/c1nc(Cl)ccc1Cl)c1ccc(OCCN2CCOCC2)cc1", "note": "(stereo not shown) [Compound G9, (E)-2-Cyano-3-(3,6-dichloropyridin-2-yl)-N-(1-(4-(2-morpholinoethoxy)phenyl)butyl)acrylamide]", "values": [{"measurement": "Usp9xCD inhibitory activity compared to WP1130", "setting": "[1]", "result": "superior inhibitors of Usp9xCD"}, {"measurement": "IC50", "setting": "[2]", "result": 1, "unit": "µM"}, {"measurement": "antiviral activity against murine norovirus", "setting": "murine norovirus", "result": "exhibits antiviral activity against murine norovirus"}, {"measurement": "apoptotic sensitivity of myeloma tumor cells versus normal CD34+ cells", "setting": "[3]", "result": "more apoptotically sensitive to G9 than normal CD34+ cells"}, {"measurement": "effectiveness in inducing apoptosis, tumor (myeloma) versus normal CD34+ cells", "setting": "[3]", "result": "~10", "unit": "fold"}, {"measurement": "Usp24 inhibition", "setting": "Usp24", "result": "inhibited the DUB Usp24"}, {"measurement": "Mcl-1 protein levels in MM1.S tumors", "setting": "Usp9x [4]", "result": "reduces Mcl-1 protein levels"}, {"measurement": "Usp9x DUB activity in MM1.S tumors", "setting": "Usp9x [4]", "result": "reduces Usp9x DUB activity"}, {"measurement": "apoptosis (PARP cleavage) in MM1.S tumors", "setting": "Usp9x [4]", "result": "activates apoptosis"}, {"measurement": "inhibition of category A and B pathogens and related family members", "setting": "[5]", "result": "potent inhibitor"}, {"measurement": "Usp9x activity", "setting": "Usp9x [6]; A375 melanoma cells and vemurafenib-resistant A375 variant", "result": "inhibition of Usp9x activity in either cell type; also recorded: reduced Usp5 (and Usp9x) activity in both cell types"}, {"measurement": "inhibition at 5 µM", "setting": "Usp9x [6]; 5 minutes, read-out: Usp9x activity inhibition", "result": "> 80", "unit": "%"}, {"measurement": "inhibition at 5 µM", "setting": "Usp9x [6]; 60 minute, read-out: Usp9x inhibition", "result": 100, "unit": "%"}, {"measurement": "Usp9x activity in intact cells", "setting": "Usp9x [6]; [8]", "result": "able to inhibit Usp9x activity in intact cells"}, {"measurement": "Usp9x inhibition", "setting": "Usp9x [6]; myeloma (MM1.S) cells, various concentrations, FIG. 10", "result": "inhibits Usp9x and Usp5"}, {"measurement": "caspase activity (PARP cleavage)", "setting": "Mcl-1, PARP; MM1.ST cells, 5 μM", "result": "activation of caspase activity"}, {"measurement": "Mcl-1 level", "setting": "Mcl-1, PARP; MM1.ST or PCL cells, 5 μM", "result": "reduction in Mcl-1"}, {"measurement": "level of Mcl-1", "setting": "Mcl-1, PARP; [8]", "result": "reduce the level of a downstream target of Usp9x"}, {"measurement": "pERK, pStat3 and NOXA levels", "setting": "[7]; A375R cells", "result": "reduced pERK, pStat3 and elevated NOXA levels"}, {"measurement": "PARP and Bid cleavage", "setting": "[7]; A375R cells, combined with vemurafenib or 5FU", "result": "induced PARP and Bid cleavage"}, {"measurement": "p53 levels", "setting": "[7]; [9]", "result": "increased p53 levels"}, {"measurement": "pStat3 inhibitory activity", "setting": "[7]; [9]", "result": "retained pStat3 inhibitory activity"}]}
